In article PMC9268305, “The Pharmacokinetics in Mice and Cell Uptake of Thymus Immunosuppressive Pentapeptide Using LC-MS/MS Analysis” (Molecules, 2022):
“Also recorded” adds a separate entry of the source. Where a SMILES comes first, the peptide text is derived from it. The star is where a group is joined. FITC = O=C1OC2(c3ccc(O)cc3Oc3cc(O)ccc32)c2ccc(NC(=S)*)cc21; Ahx = NCCCCCC(=O)O

Key:
[1] = Elimination of TIPP after intravenous injection in mice (data not shown); assay type: in vivo
[2] = tested on: RBL-2H3 cells
Description: (§1) RBL-2H3 cells were obtained from the Cell Resource Center of Shanghai Institutes for Biological Sciences (Shanghai, China) and cultured in complete MEM containing 15% heat-inactivated FBS in a 37 °C incubator (5% CO2 and 95% air). […] To prepare final cell rinse samples, the cells were removed, the supernatant was rinsed with 1 mL of PBS five times, and 90 μL of the final cell rinse was collected and mixed with 10 μL of S4 solution (3 μg/mL) for chromatographic analysis directly. For the preparation of cell lysate samples, the cells (about 10^6 cells) were lysed with 130 μL of RIPA buffer for 30 min on ice, and 100 μL of the cell lysate was collected for sample pre-processing following Section 4.5.1.
(§2) RBL-2H3 cells were seeded in a 35 mm diameter dish at 8 × 10^5 cells and treated with 200 μg/mL TIPP for different durations (5 min, 10 min, 20 min, 30 min, 40 min, 1 h, 3 h, 6 h, 12 h, and 24 h). Then, the cells were subjected to the pre-processing procedures to prepare cell lysates, cell culture supernatants and the final cell rinse samples (Section 4.5.2). In addition, to study TIPP intracellular degradation, the cells were incubated with TIPP for 40 min, which was followed by incubation with TIPP-free medium for 10, 20, 30, 40, and 60 min, respectively. The cell lysates were then harvested at the above time points and pre-processed as presented in Section 4.5.2.

[3] = Stability of TIPP in processed murine plasma samples (LC-MS/MS validation); assay type: in vitro ADME, mouse; conditions: compared to nominal concentration, mean ± SD, n = 3, in % (unit assumed)
Description: The stability of TIPP in plasma samples was investigated under different conditions. To evaluate autosampler stability, long-term stability, and short-term stability, up to three replicates of LQC and HQC plasma samples were evaluated when the samples were stored at room temperature for 4 h, at 4 °C for 24 h, and at −80 °C for 4 weeks, respectively. Freeze–thaw stability was also assessed in three cycles from −80 to 25 °C. Concentrations were determined using a TIPP calibrator of the respective validation day. Obtained results were compared to nominal concentrations to determine the stability.

[4] = PK of TIPP via subcutaneous injection in mice; conditions: female, BALB/c, mouse, plasma, sc, 50 mg/kg; for MRT: mice, 50 mg/kg subcutaneous, mean ± SD, n = 8
Description: (§3) Whole blood was collected from inner canthus into a tube containing ethylenediaminetetraacetic acid (EDTA) and centrifuged at 5000 rcf for 3 min. Subsequently, 10 μL of plasma samples were diluted with 90 μL TDW. The sample processing process is then executed, and the diluted samples were mixed with 10 μL of S4 solution (3 μg/mL) and 300 μL of 2% FA-ACN in a tube containing 20 μL of DTT solution (25 mg/mL). After centrifugation at 15,000 rcf for 10 min, 300 μL supernatant was transferred to a new tube containing 500 μL of DCM. The mixture was vortexed and centrifuged at 15,000 rcf for 10 min, and the aqueous layer was loaded into the LC-MS/MS system.
(§4) After 4 h fasting (ad libitum water intake), mice were subcutaneously injected with 50 mg/kg TIPP. At 0.5, 1, 2, 5, 10, 15, 20, and 40 min post administration (eight mice at each time points), blood samples were taken from an inner canthus into tubes containing Na2·EDTA and centrifuged at 5000 rcf for 10 min to obtain plasma. All samples were processed as described in Section 4.5.1 immediately.
(§5) PK parameters were calculated as mean ± standard deviation (SD). The Cmax and the time to reach Tmax were calculated based on the highest concentration and the corresponding time point, and t1/2 was calculated from C0 to C40. The area under the curve during the 40 min window (AUC0→40) and the extrapolated value (AUC0→∞) were calculated using the trapezoidal rule, and the elimination rate and concentration at 40 min were extrapolated from 40 min to infinity. The CL/F and Vd/F were calculated using the first-order one-compartment model.
(§6) Analyst® 1.5 software (AB SCIEX) was used for HPLC-MS/MS data processing. A non-compartmental model was employed to fit the PK of TIPP in mice plasma using DAS 2.0 software. […] Results were compared using t test or one-way analysis of variance, which was followed by Dunnett’s multiple comparisons test, with p < 0.05 considered significant.

[5] = Sample-preparation stability/recovery of TIPP in water and murine plasma, with stabilizers; assay type: in vitro ADME, mouse
Description: TIPP stock solutions were separately diluted in TDW or murine plasma at a concentration of 1 μg/mL. Samples (10 μL) were subjected to protein precipitation either immediately or after 10 min incubation at room temperature (around 25 °C). A series of reagents were used for protein precipitation, including MeOH (300 μL) and 2% FA-ACN of different volumes (300, 140, 100, and 70 μL). After brief vortex, the samples were centrifuged at 15,000 rcf at 4 °C for 10 min, and the supernatants were collected for chromatographic analysis. In order to increase the signal intensity of highly water-soluble TIPP in organic solvents, a group of liquid–liquid extraction was carried out to separate the aqueous phase from the organic phase. After treating with 300 μL of 2% FA-ACN, the resulting supernatants (300 μL) were mixed with 500 μL of DCM for backwashing. […] After sample preparation, the processed samples were stored at −80 °C until analysis. Before sampling, the prepared sample was thawed, vortexed, and placed in the autosampler.
To choose the optimal stabilizer, the performance of DTT (30 mg/mL), L-AA (10 mg/mL), and PMSF (50 μg/mL) was evaluated. Plasma (90 μL) was mixed with each stabilizer (20 μL), and TIPP (10 μL, 5 μg/mL). The samples were subjected to protein precipitation either immediately or after 10 min incubation at room temperature. For protein precipitation, the samples added with 10 μL of S4 (3 μg/mL) were mixed with 300 μL of 2% FA-ACN and processed as discussed in Section 4.3.1. The aqueous layer was collected for chromatographic analysis. The recovery of TIPP with each stabilizer was determined. Moreover, the stabilizing effect of DTT was further evaluated with different concentrations (2.5, 5, 10, 20, 25, and 40 mg/mL), following the above protocol.

[6] = tested on: RBL-2H3 cells; assay: Uptake of TIPP in RBL-2H3 cells by LC-MS/MS (lysates, supernatants, final rinse)
Description: as §1, §2

[7] = mouse, in vivo, sc, 50 mg/kg
Description: as §3, §4, §5, §6

[8] = tested on: RBL-2H3 cells; assay: Confocal visualization of cellular localization of FITC-TIPP; assay type: cell-based, rat; conditions: confocal microscope
Description: RBL-2H3 cells (4 × 10^4) were seeded in a 35 mm confocal dish and treated with 367 μg/mL FITC-TIPP for 0, 5, 10, 20, 30, 40, and 60 min, respectively. Then, the cells were fixed with 4% paraformaldehyde solution for 10 min and permeabilized with 0.1% Triton-100 for 5 min, which was followed by nuclear staining in a dark place with Hoechst 33342 for 5 min. Finally, the cells were washed, stained with DiI dye solution for 10 min, rinsed with PBS three times, and analyzed with a confocal microscope.

[9] = -SH group substituted with the -OH group; cited from earlier work
Source text: The pharmacokinetic properties in animals and its action mechanism also need to be studied using reliable, accurate, and sensitive methods in order to develop TIPP into a new drug. Short peptides can be analyzed using fluorescence labeling, immunoassay, and liquid chromatography-tandem mass spectrometry (LC-MS/MS). Although the visualization and quantification of fluorescently labeled peptides are widely used, there are still some drawbacks. One such flaw is that fluorescent labeling might change the structure of small molecules, resulting in the alteration of physical and chemi ...

C[C@H](N)C(=O)N[C@@H](CCC(=O)O)C(=O)N[C@@H](Cc1c[nH]c2ccccc12)C(=O)N[C@@H](CS)C(=O)N1CCC[C@H]1C(=O)O (H-AEWCP-OH)
Elimination after intravenous injection [1]: rapid elimination | Intracellular t1/2 of TIPP [2]: 5.596 min | Stability in murine plasma, 4 weeks at −80 °C, HQC ([3]; HQC 4000 ng/mL, 4 weeks at −80 °C): 90.70 ± 0.12 | Stability in murine plasma, 4 h at room temperature, HQC ([3]; HQC 4000 ng/mL, 4 h at room temperature): 98.02 ± 0.04 | Stability in murine plasma, 24 h at 4 °C, HQC ([3]; HQC 4000 ng/mL, autosampler 24 h at 4 °C): 99.35 ± 0.84 | Stability in murine plasma, three freeze-thaw cycles, HQC ([3]; HQC 4000 ng/mL, three freeze-thaw cycles at −80–25 °C): 106.00 ± 0.16 | Stability in murine plasma, 4 weeks at −80 °C, LQC ([3]; LQC 50 ng/mL, 4 weeks at −80 °C): 90.70 ± 1.61 | Stability in murine plasma, 24 h at 4 °C, LQC ([3]; LQC 50 ng/mL, autosampler 24 h at 4 °C): 103.64 ± 2.00 | Stability in murine plasma, three freeze-thaw cycles, LQC ([3]; LQC 50 ng/mL, three freeze-thaw cycles at −80–25 °C): 94.23 ± 0.02 | AUC(0-inf) [4]: 136 ng·h/mL | AUC(0-t) [4]: 133 ng·h/mL | Cmax [4]: 623 ± 67.1 ng/mL | Tmax [4]: 10 min | Vd/F [4]: 54.4 ± 20.9 L/kg | half-life [4]: 5.99 ± 1.82 min | level at 40 min [4]: ~20 ng/mL | MRT ([4]; MRT(0–t)): 11.3 min | MRT ([4]; MRT(0–∞)): 12.5 min | Stability of TIPP in aqueous solution ([5]; 1 μg/mL in TDW, 10 min at room temperature (around 25 °C), protein precipitation with only organic reagents, LC-MS/MS intensity): remained stable | Stability of TIPP in plasma without stabilizer ([5]; 1 μg/mL in murine plasma, 10 min at room temperature (around 25 °C), protein precipitation with only organic reagents, LC-MS/MS intensity): intensity decreased significantly | Average recovery of TIPP in plasma with DTT as stabilizer ([5]; murine plasma, 20 mg/mL DTT, immediately or after 10 min at room temperature, LC-MS/MS, n = 3): higher than 95% | Intracellular concentration of TIPP (cell lysate) at 20 min ([6]; 200 μg/mL TIPP, 20 min, cells rinsed five times with PBS, RIPA lysate, LC-MS/MS, n = 3): 24.57 ± 4.53 ng/mL | Concentration of TIPP in cell culture supernatant at 12 h ([6]; 200 μg/mL TIPP, MEM with 15% FBS, 37 °C, 12 h, LC-MS/MS, n = 3): below the detection limit | Concentration of TIPP in PBS rinse samples ([6]; 200 μg/mL TIPP, all PBS rinse samples, detection limit, LC-MS/MS): < 0.1 ng/mL | Residual TIPP in the final cell rinse PBS (in words) ([6]; 200 μg/mL TIPP, fifth PBS rinse, LC-MS/MS): No residual TIPP was detected | Intracellular concentration of TIPP (cell lysate), plateau ([6]; 200 μg/mL TIPP, from 30 min onwards, RIPA lysate, LC-MS/MS, n = 3): 38.62 ± 2.47 ng/mL | Intracellular TIPP about 30 min after substituting TIPP-free medium (in words) ([6]; 40 min with 200 μg/mL TIPP, then TIPP-free medium for 30 min, cell lysates): almost eliminated; also recorded: decreased to near LLOQ | CL/F (apparent clearance rate) [7]: 380 ± 87 L/h/kg

C[C@H](NC(=O)CCCCCNC(=S)Nc1ccc2c(c1)C(=O)OC21c2ccc(O)cc2Oc2cc(O)ccc21)C(=O)N[C@@H](CCC(=O)O)C(=O)N[C@@H](Cc1c[nH]c2ccccc12)C(=O)N[C@@H](CS)C(=O)N1CCC[C@H]1C(=O)O [FITC-TIPP] ({FITC-Ahx}-AEWCP-OH)
Co-localization of FITC-TIPP with RBL-2H3 cells ([8]; 367 μg/mL FITC-TIPP (same molar concentration as 200 μg/mL TIPP), fluorescence): co-localized with RBL-2H3 cells at 10 min | Fluorescent signal of FITC-TIPP in cells over time ([8]; 367 μg/mL FITC-TIPP, after 30 min, Hoechst 33342 and DiI staining): remained steady after 30 min with significant intranuclear enrichment

AEWSP [S4, analog of TIPP (AEWSP), used as the internal standard of the LC-MS/MS method]
Stability compared with TIPP [9]: significantly improved
